Results reported in US12595230B2, “Substituted 6,7-dihydro-5H-benzo[7]annulene compounds and their derivatives, processes for their preparation and therapeutic uses thereof” (Sanofi, priority 2020, dated 2026).
pIC50: −log10 of the molar value.

Target: T1, ERα (Homo sapiens, UniProt P03372)
T1 construct: host or cells: MCF7
T1 sequence (P03372 1-595): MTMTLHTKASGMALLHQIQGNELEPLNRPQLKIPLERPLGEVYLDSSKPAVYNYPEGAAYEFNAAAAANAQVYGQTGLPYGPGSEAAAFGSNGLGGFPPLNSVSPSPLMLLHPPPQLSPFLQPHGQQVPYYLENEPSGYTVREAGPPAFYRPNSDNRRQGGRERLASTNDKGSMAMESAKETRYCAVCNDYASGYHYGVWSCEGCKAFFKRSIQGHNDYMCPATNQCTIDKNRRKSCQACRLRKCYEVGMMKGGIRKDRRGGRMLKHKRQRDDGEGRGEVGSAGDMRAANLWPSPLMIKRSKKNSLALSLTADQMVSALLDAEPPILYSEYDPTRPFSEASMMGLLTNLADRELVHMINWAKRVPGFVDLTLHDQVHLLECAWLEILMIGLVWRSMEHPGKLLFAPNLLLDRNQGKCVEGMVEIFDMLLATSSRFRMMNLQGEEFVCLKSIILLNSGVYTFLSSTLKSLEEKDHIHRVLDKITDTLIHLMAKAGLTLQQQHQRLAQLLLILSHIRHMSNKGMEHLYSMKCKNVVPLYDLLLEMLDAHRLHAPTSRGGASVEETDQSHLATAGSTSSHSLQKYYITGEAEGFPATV
Assay: Estrogen receptor degradation activity: breast cancer cell ERα in cell western assay (MCF7 cells)
Assay type: cell-based
Conditions: for % Degradation At 0.3 μM: 4 hours, relative to fulvestrant 0.1 μM positive control; for DC50: read-out: Degradation IC50
Description: Test: Estrogen Receptor Degradation Activity Said test involves measuring the in vitro degradation activity of the compounds of the Table 1a. The measurements of the degradation activities were made using a breast cancer cell ERα in cell western assay as described hereunder. MCF7 cells (ATCC) were seeded in 384 wells microplate (collagen coated) at a concentration of 10000 cells/30 μL per well in red phenol free MEM alpha medium (invitrogen) containing 5% charcoal dextran striped FBS. The following day, 9 points serial 1:5 dilution of each compound was added to the cells in 2.5p L at final concentrations ranging from 0.3-0.0000018 μM (in table 2), or 0.1 μM for fulvestrant (using as positive control). At 4 hours post compound addition the cells were fixed by adding 25 μL of formalin (final concentration 5% formalin containing 0.1% triton) for 10 minutes at room temperature and then washed twice with PBS. Then, 50 μL of LI-COR blocking buffer containing 0.1% Triton was added to plate for 30 minutes at room temperature. LI-COR blocking buffer was removed and cells were incubated overnight at cold room with 50 μL anti-ER rabbit monoclonal antibody (Thermo scientific MA1-39540) diluted at 1:1000 in LI-COR blocking buffer containing 0.1% tween-20. Wells which were treated with blocking buffer but no antibody were used as background control. Wells were washed twice with PBS (0.1% tween-20) and incubated at 37° C. for 60 minutes in LI-COR (0.1% tween-20) containing goat anti-rabbit antibody Alexa 488 (1:1000) and Syto-64 a DNA dye (2 μM final concentration). Cells were then washed 3 times in PBS and scanned in ACUMEN explorer (TTP-Labtech). Integrated intensities in the green fluorescence and red fluorescence were measured to determine the levels of ERα and DNA respectively. The degradation activity with respect to estrogen receptors in this test is given by the concentration which degrades 50% of the estrogen receptor (or IC50) in nM. […] DMSO−fulvestrant)).

[1] = 4 hours post compound addition, concentration which degrades 50% of the estrogen receptor

SMILES | % Degradation At 0.3 μM [%] | DC50 [1] [nM] | pIC50 [1]
O=C(O)c1c(F)cc2c(c1F)CCCC(c1ccccc1Cl)=C2c1ccc(CC2CN(CCCF)C2)cc1 [Example 224] | 82 | 43 | 
O=C(O)c1ccc2c(c1)CCCC(C1CCOCC1)=C2c1ccc(CC2CN(CCCF)C2)cc1 [Example 38, 9-(4-((1-(3-fluoropropyl)azetidin-3-yl)methyl)phenyl)-8-(tetrahydro-2H-pyran-4-yl)-6,7-dihydro-5H-benzo[7]annulene-3-carboxylic acid] | 83 | 7 | 
O=C(O)c1cc2c(cc1Cl)C(c1ccc(CC3CN(CCCF)C3)cc1)=C(c1ccc(Cl)cc1Cl)CCC2 [Example 248, 2-chloro-8-(2,4-dichlorophenyl)-9-(4-((1-(3-fluoropropyl)azetidin-3-yl)methyl)phenyl)-6,7-dihydro-5H-benzo[7]annulene-3-carboxylic acid] | 90 | 2.2 | 
O=C(O)c1ccc2c(c1)CCCC(c1ccc(Cl)cc1Cl)=C2c1ccc(C(=O)C2CN(CCCF)C2)cc1 [Example 39, 8-(2,4-Dichlorophenyl)-9-(4-(1-(3-fluoropropyl)azetidine-3-carbonyl)phenyl)-6,7-dihydro-5H-benzo[7]annulene-3-carboxylic Acid] | 92 | 1.2 | 
O=C(O)c1c(F)cc2c(c1F)CCCC(c1ccc(F)cc1Cl)=C2c1ccc(CC2CN(CCCF)C2)cc1 [Example 216, 8-(2-chloro-4-fluorophenyl)-2,4-difluoro-9-(4-((1-(3-fluoropropyl)azetidin-3-yl)methyl)phenyl)-6,7-dihydro-5H-benzo[7]annulene-3-carboxylic acid] | 83 | 13.2 | 
O=C(O)c1ccc2c(c1)CCCC(c1cccc(Cl)c1C(F)(F)F)=C2c1ccc(CC2CN(CCCF)C2)cc1 [Example 226, 8-(3-chloro-2-(trifluoromethyl)phenyl)-9-(4-((1-(3-fluoropropyl)azetidin-3-yl)methyl)phenyl)-6,7-dihydro-5H-benzo[7]annulene-3-carboxylic acid] | 90 |  | 10.00
Cl.O=C(O)c1ccc2c(c1)CCCC(C1CCCC1)=C2c1ccc(CC2CN(CCCF)C2)cc1 [Example 6, 8-cyclopentyl-9-(4-((1-(3-fluoropropyl)azetidin-3-yl)methyl)phenyl)-6,7-dihydro-5H-benzo[7]annulene-3-carboxylic acid] | 82 | 0.8 | 
Oc1ccc2c(c1)CCCC(c1ccc(Cl)cc1Cl)=C2c1ccc(CC2CN(CCCF)C2)cc1 [Example 254, 8-(2,4-dichlorophenyl)-9-(4-((1-(3-fluoropropyl)azetidin-3-yl)methyl)phenyl)-6,7-dihydro-5H-benzo[7]annulen-3-ol] | 85 | 1.4 | 
Cl.O=C(O)c1ccc2c(c1)CCC(c1ccc(Cl)cc1Cl)=C2c1ccc(CC2CN(CCCF)C2)cc1 [Example 262, 6-(2,4-Dichlorophenyl)-5-(4-((1-(3-fluoropropyl)azetidin-3-yl)methyl)phenyl)-7,8-dihydronaphthalene-2-carboxylic Acid Hydrochloride] | 91 | 1.6 | 

The remaining compounds from weak to strong by DC50 [1], led by results:

% Degradation At 0.3 μM [%] | DC50 [1] [nM] | pIC50 [1] | SMILES
76 | 0.6 |  | COC(c1ccc(C2=C(c3ccc(Cl)cc3Cl)CCCc3cc(C(=O)O)ccc32)cc1)C1CN(CCCF)C1 (single isomer, unassigned; isomer 2) [Example 228, 8-(2,4-dichlorophenyl)-9-(4-((1-(3-fluoropropyl)azetidin-3-yl)(methoxy)methyl)phenyl)-6,7-dihydro-5H-benzo[7]annulene-3-carboxylic Acid Isomer 2]
94 | 0.6 |  | O=C(O)c1ccc2c(c1)CCCC(c1cccc(Cl)c1F)=C2c1ccc(CC2CN(CCCF)C2)cc1 [Example 32, 8-(3-chloro-2-fluorophenyl)-9-(4-((1-(3-fluoropropyl)azetidin-3-yl)methyl)phenyl)-6,7-dihydro-5H-benzo[7]annulene-3-carboxylic acid]
86 | 0.5 |  | Cc1cc(C2=C(c3ccc(Cl)cc3Cl)CCCc3cc(C(=O)O)ccc32)ccc1CC1CN(CCCF)C1.Cl [Example 48, 8-(2,4-dichlorophenyl)-9-(4-((1-(3-fluoropropyl)azetidin-3-yl)methyl)-3-methylphenyl)-6,7-dihydro-5H-benzo[7]annulene-3-carboxylic acid]
89 | 0.4 |  | Cc1c(C2=C(c3ccc(CC4CN(CCC(F)F)C4)cc3)c3ccc(C(=O)O)cc3CCC2)ccc(F)c1F [Example 275, 8-(3,4-difluoro-2-methylphenyl)-9-(4-((1-(3,3-difluoropropyl)azetidin-3-yl)methyl)phenyl)-6,7-dihydro-5H-benzo[7]annulene-3-carboxylic acid]
91 | 0.4 |  | O=C(O)c1ccc2c(c1)CCCC(c1ccc(Cl)cc1Cl)=C2c1ccc(C(F)(F)C2CN(CCCF)C2)cc1 [Example 40, 8-(2,4-dichlorophenyl)-9-(4-(difluoro(1-(3-fluoropropyl)azetidin-3-yl)methyl)phenyl)-6,7-dihydro-5H-benzo[7]annulene-3-carboxylic acid]
83 | 0.4 |  | Cc1ccc(C2=C(c3ccc(CC4CN(CCCF)C4)cc3)c3cc(F)c(O)c(F)c3CCC2)c(Cl)c1 [Example 265, 8-(2-chloro-4-methylphenyl)-2,4-difluoro-9-(4-((1-(3-fluoropropyl)azetidin-3-yl)methyl)phenyl)-6,7-dihydro-5H-benzo[7]annulen-3-ol]
91 | 0.4 |  | Cc1ccc(C2=C(c3ccc(CC4CN(CCCF)C4)cc3)c3ccc(C(=O)O)cc3CCC2)c(F)c1.Cl [Example 11, 8-(2-fluoro-4-methylphenyl)-9-(4-((1-(3-fluoropropyl)azetidin-3-yl)methyl)phenyl)-6,7-dihydro-5H-benzo[7]annulene-3-carboxylic acid]
86 | 0.3 |  | O=C(O)c1ccc2c(c1)CCCC(c1ccc(Cl)cc1C(F)(F)F)=C2c1ccc(CC2CN(CCC(F)F)C2)cc1 [Example 289, 8-(4-chloro-2-(trifluoromethyl)phenyl)-9-(4-((1-(3,3-difluoropropyl)azetidin-3-yl)methyl)phenyl)-6,7-dihydro-5H-benzo[7]annulene-3-carboxylic acid]
95 | 0.2 |  | Cl.[2H]C([2H])(CCF)N1CC(Cc2ccc(C3=C(c4ccc(Cl)cc4Cl)CCCc4cc(C(=O)O)ccc43)cc2)C1 [Example 208, 8-(2,4-dichlorophenyl)-9-(4-((1-(3-fluoropropyl-1,1-d2)azetidin-3-yl)methyl)phenyl)-6,7-dihydro-5H-benzo[7]annulene-3-carboxylic acid hydrochloride]
94 | 0.2 |  | Cc1ccc(C2=C(c3ccc(CC4CN(CCCF)C4)cc3)c3ccc(C(=O)O)cc3CCC2)c(C(F)(F)F)c1.Cl [Example 213, 9-(4-((1-(3-fluoropropyl)azetidin-3-yl)methyl)phenyl)-8-(4-methyl-2-(trifluoromethyl)phenyl)-6,7-dihydro-5H-benzo[7]annulene-3-carboxylic acid hydrochloride]
